Assay results reported in the NIST ThermoML archive (doi:10.1021/je5007407).
“And” between values parts separate entries of the source, which are not always exact repeats. Equal values may be shown once. Numbers after ± are expanded uncertainties.

Assay: xn = mol fraction of the nth substance listed
Conditions: Gas, Frequency=2 MHz, Pulse-echo method

CCC [propane] + O=C=O
Conditions | speed of sound
298.18 K, 100010 kPa, x2 = 0.9376 | 1076.7 ± 1 m/s
298.18 K, 125020 kPa, x2 = 0.9376 | 1162.3 ± 1 m/s
298.18 K, 149960 kPa, x2 = 0.9376 | 1236.7 ± 1.1 m/s
298.18 K, 175000 kPa, x2 = 0.9376 | 1302.7 ± 1.1 m/s
298.18 K, 200100 kPa, x2 = 0.9376 | 1364.5 ± 1.2 m/s
323.09 K, 24930 kPa, x2 = 0.9683 | 534.6 ± 1 m/s
323.09 K, 24940 kPa, x2 = 0.9683 | 534.8 ± 1 m/s
323.09 K, 50140 kPa, x2 = 0.9683 | 752.6 ± 1 m/s
323.09 K, 75000 kPa, x2 = 0.9683 | 890.2 ± 0.9 m/s
323.09 K, 75070 kPa, x2 = 0.9683 | 897.6 ± 0.9 m/s
323.09 K, 100590 kPa, x2 = 0.9683 | 1000.1 ± 0.9 m/s
323.09 K, 125560 kPa, x2 = 0.9683 | 1088.7 ± 1 m/s
323.09 K, 149970 kPa, x2 = 0.9683 | 1164.3 ± 1 m/s
323.09 K, 175330 kPa, x2 = 0.9683 | 1234.8 ± 1.1 m/s
323.09 K, 200000 kPa, x2 = 0.9683 | 1296.5 ± 1.1 m/s
323.1 K, 30220 kPa, x2 = 0.9907 | 590.1 ± 1 m/s
323.1 K, 30230 kPa, x2 = 0.9907 | 589.8 ± 1 m/s
323.1 K, 49980 kPa, x2 = 0.9907 | 747 ± 0.9 m/s
323.1 K, 75170 kPa, x2 = 0.9907 | 886.1 ± 0.9 m/s
323.1 K, 100210 kPa, x2 = 0.9907 | 992.6 ± 0.9 m/s
323.1 K, 124810 kPa, x2 = 0.9907 | 1080.5 ± 1 m/s
323.1 K, 149980 kPa, x2 = 0.9907 | 1157.2 ± 1 m/s
323.1 K, 174620 kPa, x2 = 0.9907 | 1224.1 ± 1.1 m/s
323.1 K, 200340 kPa, x2 = 0.9907 | 1288.4 ± 1.1 m/s
323.13 K, 50000 kPa, x2 = 0.9981 | 745.6 ± 0.9 m/s
323.13 K, 50020 kPa, x2 = 0.9981 | 745.8 ± 0.9 m/s
323.13 K, 75120 kPa, x2 = 0.9981 | 883.4 ± 0.9 m/s
323.13 K, 100030 kPa, x2 = 0.9981 | 988.9 ± 0.9 m/s
323.13 K, 124980 kPa, x2 = 0.9981 | 1076.8 ± 1 m/s
323.13 K, 150000 kPa, x2 = 0.9981 | 1153.2 ± 1 m/s
323.13 K, 175020 kPa, x2 = 0.9981 | 1220.9 ± 1.1 m/s
323.13 K, 200000 kPa, x2 = 0.9981 | 1282.1 ± 1.1 m/s
323.19 K, 15120 kPa, x2 = 0.9376 | 381.2 ± 1.5 m/s
323.19 K, 15160 kPa, x2 = 0.9376 | 381.4 ± 1.5 m/s
323.19 K, 25000 kPa, x2 = 0.9376 | 541.2 ± 1.1 m/s
323.19 K, 50090 kPa, x2 = 0.9376 | 758.5 ± 1 m/s
323.19 K, 75070 kPa, x2 = 0.9376 | 897.6 ± 0.9 m/s
323.19 K, 100040 kPa, x2 = 0.9376 | 1005.2 ± 1 m/s
323.19 K, 125050 kPa, x2 = 0.9376 | 1095.7 ± 1 m/s
323.19 K, 150020 kPa, x2 = 0.9376 | 1173.9 ± 1 m/s
323.19 K, 175000 kPa, x2 = 0.9376 | 1243.4 ± 1.1 m/s
323.19 K, 200420 kPa, x2 = 0.9376 | 1307.5 ± 1.1 m/s
348.09 K, 30390 kPa, x2 = 0.9683 | 504.8 ± 1 m/s
348.09 K, 30400 kPa, x2 = 0.9683 | 504.8 ± 1 m/s
348.09 K, 49950 kPa, x2 = 0.9981 | 667.1 ± 0.8 m/s and 667.2 ± 0.8 m/s
348.09 K, 50030 kPa, x2 = 0.9683 | 675.2 ± 0.9 m/s
348.09 K, 50360 kPa, x2 = 0.9907 | 672.7 ± 0.8 m/s
348.09 K, 50370 kPa, x2 = 0.9907 | 672.7 ± 0.8 m/s
348.09 K, 75020 kPa, x2 = 0.9981 | 813.6 ± 0.9 m/s
348.09 K, 75080 kPa, x2 = 0.9907 | 816.9 ± 0.9 m/s
348.09 K, 75220 kPa, x2 = 0.9683 | 823 ± 0.9 m/s
348.09 K, 99980 kPa, x2 = 0.9981 | 924.6 ± 0.9 m/s
348.09 K, 100580 kPa, x2 = 0.9907 | 931.1 ± 0.9 m/s
348.09 K, 100600 kPa, x2 = 0.9683 | 937.3 ± 0.9 m/s
348.09 K, 124980 kPa, x2 = 0.9981 | 1016.6 ± 0.9 m/s
348.09 K, 125530 kPa, x2 = 0.9683 | 1029 ± 0.9 m/s
348.09 K, 125700 kPa, x2 = 0.9907 | 1023.2 ± 0.9 m/s
348.09 K, 149990 kPa, x2 = 0.9981 | 1095.6 ± 1 m/s
348.09 K, 150440 kPa, x2 = 0.9683 | 1109.4 ± 1 m/s
348.09 K, 150600 kPa, x2 = 0.9907 | 1101.4 ± 1 m/s
348.09 K, 174720 kPa, x2 = 0.9683 | 1178.6 ± 1 m/s
348.09 K, 175000 kPa, x2 = 0.9981 | 1165.6 ± 1 m/s
348.09 K, 175290 kPa, x2 = 0.9907 | 1171.4 ± 1 m/s
348.09 K, 200000 kPa, x2 = 0.9981 | 1228.6 ± 1.1 m/s
348.09 K, 200040 kPa, x2 = 0.9683 | 1243.8 ± 1.1 m/s
348.09 K, 200720 kPa, x2 = 0.9907 | 1236.7 ± 1.1 m/s
348.18 K, 25040 kPa, x2 = 0.9376 | 446.6 ± 1 m/s
348.18 K, 25050 kPa, x2 = 0.9376 | 446.8 ± 1 m/s
348.18 K, 50050 kPa, x2 = 0.9376 | 682.3 ± 1 m/s
348.18 K, 75100 kPa, x2 = 0.9376 | 830.6 ± 0.9 m/s
348.18 K, 100100 kPa, x2 = 0.9376 | 943.7 ± 0.9 m/s
348.18 K, 125020 kPa, x2 = 0.9376 | 1037.1 ± 1 m/s
348.18 K, 149940 kPa, x2 = 0.9376 | 1117.7 ± 1 m/s
348.18 K, 174970 kPa, x2 = 0.9376 | 1189.8 ± 1 m/s
348.18 K, 200000 kPa, x2 = 0.9376 | 1254.3 ± 1.1 m/s
373.1 K, 74950 kPa, x2 = 0.9981 | 754.4 ± 0.8 m/s
373.1 K, 74970 kPa, x2 = 0.9981 | 754.7 ± 0.8 m/s
373.1 K, 100020 kPa, x2 = 0.9981 | 869.7 ± 0.9 m/s
373.1 K, 125030 kPa, x2 = 0.9981 | 963.9 ± 0.9 m/s
373.1 K, 150000 kPa, x2 = 0.9981 | 1044.4 ± 0.9 m/s
373.1 K, 175000 kPa, x2 = 0.9981 | 1115.5 ± 1 m/s
373.1 K, 200000 kPa, x2 = 0.9981 | 1179.3 ± 1 m/s
373.12 K, 25050 kPa, x2 = 0.9376 | 384.7 ± 1 m/s
373.12 K, 25060 kPa, x2 = 0.9376 | 385 ± 1 m/s
373.12 K, 35140 kPa, x2 = 0.9683 | 488.3 ± 1 m/s
373.12 K, 35170 kPa, x2 = 0.9683 | 488.8 ± 1 m/s
373.12 K, 49890 kPa, x2 = 0.9376 | 618.8 ± 1 m/s
373.12 K, 49950 kPa, x2 = 0.9683 | 611.6 ± 0.9 m/s
373.12 K, 75070 kPa, x2 = 0.9683 | 764.5 ± 0.9 m/s
373.12 K, 75090 kPa, x2 = 0.9376 | 772.6 ± 0.9 m/s
373.12 K, 100000 kPa, x2 = 0.9376 | 889.4 ± 0.9 m/s
373.12 K, 100300 kPa, x2 = 0.9683 | 881.3 ± 0.9 m/s
373.12 K, 124970 kPa, x2 = 0.9376 | 985.6 ± 0.9 m/s
373.12 K, 125160 kPa, x2 = 0.9683 | 976.5 ± 0.9 m/s
373.12 K, 149930 kPa, x2 = 0.9376 | 1069 ± 1 m/s
373.12 K, 150000 kPa, x2 = 0.9683 | 1057.9 ± 1 m/s
373.12 K, 174970 kPa, x2 = 0.9376 | 1141.6 ± 1 m/s
373.12 K, 175220 kPa, x2 = 0.9683 | 1131.5 ± 1 m/s
373.12 K, 200010 kPa, x2 = 0.9683 | 1196.4 ± 1 m/s
373.12 K, 200030 kPa, x2 = 0.9376 | 1208.7 ± 1.1 m/s
373.13 K, 50050 kPa, x2 = 0.9907 | 607.3 ± 0.8 m/s
373.13 K, 50070 kPa, x2 = 0.9907 | 607.5 ± 0.8 m/s
373.13 K, 76000 kPa, x2 = 0.9907 | 763.8 ± 0.9 m/s
373.13 K, 100270 kPa, x2 = 0.9907 | 874.4 ± 0.9 m/s
373.13 K, 125410 kPa, x2 = 0.9907 | 970.3 ± 0.9 m/s
373.13 K, 150430 kPa, x2 = 0.9907 | 1051.5 ± 1 m/s
373.13 K, 174660 kPa, x2 = 0.9907 | 1121.2 ± 1 m/s
373.13 K, 200020 kPa, x2 = 0.9907 | 1188.3 ± 1 m/s
